Data on ten substances can be found in patent US9845349B2 (priority 2012, dated 2017).

Where “and” joins values, the source holds several entries; their conditions need not be identical. Identical values can stand only once. Like-named read-outs stand apart in the source and are kept apart here.

For the assay, the target named is LFG2:4B10 mAb.

Consider AFKDEIGGGSK-biotin, for which the Kd was 28.7 nM and 35.1 nM; the “Response R” value is 0.556 and 0.5352.

As for TAKDEIGGGSK-biotin, the Kd was 31.5 nM and 20.9 nM; the “Response R” value was 3.7854 and 3.7743.

As to TFADEIGGGSK-biotin, the Kd is 25.2 nM and 23.9 nM; the “Response R” value was 0.4475 and 0.4596.

In the case of TFKAEIGGGSK-biotin, the “Response R” value was 0.2612 and 0.2492.

With TFKDAIGGGSK-biotin, the dissociation constant (Kd) was 24.5 nM and the “Response R” value amounted to 1.0132.

On to TFKDEAGGGSK-biotin, for which the affinity, expressed as Kd, was 16.4 nM and the “Response R” value turned out to be 5.2909.

As to TFKDEIGGGSK-biotin, the Kd was found to be 9.97 nM, the “Response R” value came to 4.8387, the binding response is 4.83 nm and the “improvement in binding response versus native epitope THQDEIYEQK-biotin” value is on record as roughly 7 fold. Under “read-out: dissociation (KD)”, the Kd is 13.9 nM.

TFQDEIGGGSK-biotin: the Kd stood at 34.4 nM and the “Response R” value was 1.3414.

On to THKDEIGGGSK-biotin, for which the Kd stood at 60 nM and the “Response R” value stood at 2.3704.

As to THQDEIYEQK-biotin, the Kd was determined as 53.1 nM, the “Response R” value amounted to 0.7024 and the binding response came to 0.7 nm. The Kd (read-out: dissociation (KD)) came out at 53 nM.

What is called Kd is the equilibrium constant for the complex coming apart.
